From US10227324B2 (Shanghai Haiyan Pharmaceutical Technology Co., Ltd., priority 2014, dated 2019)
Like-named read-outs stand apart in the source and are kept apart here.

Tests used:
[1] = target: T1, PI3K-α kinase (p110α/p85α) (Homo sapiens, UniProt P42336); test: Determination of PI3K kinase activity (ADP Transcreener, fluorescence polarization); format: biochemical; conditions: ATP 10 μM
T1 construct: purchased Invitrogen PV4788
Procedure: (§1) The inhibition of PI3K kinase activity by the compound to be tested was determined by the following method. The working concentration of each component in the 25 μL enzyme reaction system was: p110α/p85α 3 ng (or p110β/p85α 60 ng, or p110δ/p85α 90 ng, or p110γ 100 ng), ATP 10 μM, PIP2: PS (Invitrogen PV5100) 30 μM and the DMSO concentration was 2% after addition of the compound to be tested.
(§2) At the time of the test, the compound to be tested was dissolved in dimethylsulfoxide (DMSO) according to the desired concentration of the experiment. The compound to be tested was gradiently diluted 3 times (0.00046-1 μM, 8 concentration points) with 10% DMSO. 5 μL of the compound to be tested was added to each well of a 96-well plate (Greiner 675076) in duplicate. […] 10 μL of ATP/PIP2: PS and 10 μL of the PI3K enzyme working solution were added to each well in a 96-well plate. The plate was shaken and mixed uniformly, and then incubated at 25° C. for 1 hour. At the same time, ADP and ATP (0.01 μM, 0.02 μM, 0.04 μM, 0.06 μM, 0.08 μM[…], 0.1 μM, 0.25 μM, 0.5 μM, 1 μM, 2 μM, 5 μM, 10 μM, 12 concentration points) were diluted with buffer to set the standard curve. After completion of the enzyme reaction, 25 μL of ADP assay solution (1% 100×ADP tracer, 0.79% ADP antibody and 10% 10× reaction stop solution) was added and incubated at 25° C. for 1 hour. Fluorescence polarization value [mP] of each well was measured with a Perkin Elmer Victor X5 Fluorescent Microplate. The ADP concentration [ADP] was calculated from the ADP/ATP standard curve and the IC50 values were calculated using the XLFit software.

PI3K-γ kinase (p110γ) = target: T2, PI3K-γ kinase (p110γ) (Homo sapiens, UniProt P48736); test: as above; format: biochemical; conditions: Table 1; ATP 10 μM; read-out: PI3K-γ/nM (IC50 of inhibitory activity against PI3K kinase)
T2 construct: purchased Invitrogen PV4786
T2 sequence (P48736 whole entry): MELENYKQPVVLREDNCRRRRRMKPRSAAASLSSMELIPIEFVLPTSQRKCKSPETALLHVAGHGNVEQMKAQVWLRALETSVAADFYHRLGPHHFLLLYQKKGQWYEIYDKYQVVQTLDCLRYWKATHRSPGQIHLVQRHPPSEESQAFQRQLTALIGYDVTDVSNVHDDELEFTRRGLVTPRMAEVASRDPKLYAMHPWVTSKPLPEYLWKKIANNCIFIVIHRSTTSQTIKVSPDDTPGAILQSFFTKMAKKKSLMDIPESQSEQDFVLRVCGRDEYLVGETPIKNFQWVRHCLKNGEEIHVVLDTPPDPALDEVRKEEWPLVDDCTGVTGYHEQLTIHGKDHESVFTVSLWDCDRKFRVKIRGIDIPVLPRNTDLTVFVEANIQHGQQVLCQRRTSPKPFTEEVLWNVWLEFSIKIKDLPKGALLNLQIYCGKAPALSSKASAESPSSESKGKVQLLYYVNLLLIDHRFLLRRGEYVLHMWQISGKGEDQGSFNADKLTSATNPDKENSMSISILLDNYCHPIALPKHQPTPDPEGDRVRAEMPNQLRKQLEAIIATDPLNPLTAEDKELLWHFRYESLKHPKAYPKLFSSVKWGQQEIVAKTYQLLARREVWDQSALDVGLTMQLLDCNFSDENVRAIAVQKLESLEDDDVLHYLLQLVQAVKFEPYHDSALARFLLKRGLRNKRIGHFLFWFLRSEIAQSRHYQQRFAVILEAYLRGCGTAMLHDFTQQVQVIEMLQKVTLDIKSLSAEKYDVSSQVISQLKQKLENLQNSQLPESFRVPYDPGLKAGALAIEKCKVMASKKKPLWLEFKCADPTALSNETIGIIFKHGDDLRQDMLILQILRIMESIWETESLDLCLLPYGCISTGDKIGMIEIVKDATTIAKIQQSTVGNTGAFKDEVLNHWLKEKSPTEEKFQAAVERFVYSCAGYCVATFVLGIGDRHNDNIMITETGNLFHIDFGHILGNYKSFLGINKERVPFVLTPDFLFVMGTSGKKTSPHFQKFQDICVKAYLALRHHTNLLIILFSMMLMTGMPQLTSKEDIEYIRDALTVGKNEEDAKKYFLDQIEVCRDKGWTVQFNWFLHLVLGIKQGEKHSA
Procedure: The PI3K kinase used in the experiment: p110α/p85α (Invitrogen PV4788), p110β/p85α (Millipore 14-603), p110δ/p85α (Millipore 14-604M), and p110γ (Invitrogen PV4786).
as §1
as §2, with “duplicate. 2.5× buffer was prepared and 1 μL of DTT (Millipore 20-265) was added to each 800 μL of 2.5× buffer.” for “duplicate.”

MCF-7 cells = test: Cell inhibitory activity detected by MTT assay, MCF-7; format: cell-based; conditions: Homo sapiens, MCF7, 72 h, read-out: MCF-7 cell (IC50/nM), cell growth inhibition
Procedure: (§3) The MTT assay procedure and steps were carried out as well known to those skilled in the art, and all the reagents used in the methods were commercially available. The cells in logarithmic growth phase were digested with 0.25% EDTA trypsin (Gibco, 25200-056) and resuspended in fresh medium. 90 μL of the cell suspension was inoculated into a 96-well cell culture plate (BD Faclon 353072) with a suitable cell density and cultured at 37° C. under 5% CO2. After the cells adhered, 10 μL of the test compound at different concentrations (0.0046-10 μM, 8 concentration points) was added and incubated for another 72 h. 10 μL of MTT (5 mg/mL PBS solution) (Sigma, M5655) was added to react for 4 h. The absorbance at 492 nm was measured by using Thermo Scientific Multiskan MK3 microplate reader and IC50 was calculated using XLFIT 5.0 software (UK IDBS). MCF-7 cell culture medium: DMEM medium (Hyclone SH30243.01B+10% FBS (Gibco 10099-141)

[2] = target: T3, PI3K-β kinase (p110β/p85α) (Homo sapiens, UniProt P42338); test: Determination of PI3K kinase activity (ADP Transcreener, fluorescence polarization); format: biochemical; conditions: Table 1; ATP 10 μM; read-out: PI3K-β/nM (IC50 of inhibitory activity against PI3K kinase)
T3 construct: purchased Millipore 14-603
T3 sequence (P42338 whole entry): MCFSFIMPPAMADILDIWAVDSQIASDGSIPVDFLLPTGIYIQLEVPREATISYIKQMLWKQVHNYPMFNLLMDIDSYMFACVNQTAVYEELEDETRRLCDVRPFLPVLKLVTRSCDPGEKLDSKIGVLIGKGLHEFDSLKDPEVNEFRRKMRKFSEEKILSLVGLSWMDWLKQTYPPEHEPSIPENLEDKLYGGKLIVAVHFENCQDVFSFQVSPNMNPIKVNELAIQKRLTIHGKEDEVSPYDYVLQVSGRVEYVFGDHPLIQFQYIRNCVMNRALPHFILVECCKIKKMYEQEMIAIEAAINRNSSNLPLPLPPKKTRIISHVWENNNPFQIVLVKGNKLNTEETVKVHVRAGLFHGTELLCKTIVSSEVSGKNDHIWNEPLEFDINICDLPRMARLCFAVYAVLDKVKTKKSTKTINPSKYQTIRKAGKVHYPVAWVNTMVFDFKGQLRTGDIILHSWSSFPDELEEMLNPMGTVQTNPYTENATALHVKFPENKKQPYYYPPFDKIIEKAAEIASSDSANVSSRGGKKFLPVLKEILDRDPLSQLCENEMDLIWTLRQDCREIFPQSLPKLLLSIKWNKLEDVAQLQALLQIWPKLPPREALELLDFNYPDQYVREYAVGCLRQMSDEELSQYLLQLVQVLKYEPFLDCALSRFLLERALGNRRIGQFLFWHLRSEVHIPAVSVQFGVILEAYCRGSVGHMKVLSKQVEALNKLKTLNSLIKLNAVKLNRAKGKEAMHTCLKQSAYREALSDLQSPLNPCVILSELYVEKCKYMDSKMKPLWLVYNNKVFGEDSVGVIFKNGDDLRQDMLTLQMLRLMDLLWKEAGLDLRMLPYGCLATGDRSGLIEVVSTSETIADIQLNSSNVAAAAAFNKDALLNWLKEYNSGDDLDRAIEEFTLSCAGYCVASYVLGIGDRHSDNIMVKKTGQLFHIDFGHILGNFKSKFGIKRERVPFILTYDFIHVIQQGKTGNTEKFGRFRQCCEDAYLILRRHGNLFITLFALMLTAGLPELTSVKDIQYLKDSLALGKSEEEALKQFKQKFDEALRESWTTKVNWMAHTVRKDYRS
T3 sequence (P27986 whole entry partner): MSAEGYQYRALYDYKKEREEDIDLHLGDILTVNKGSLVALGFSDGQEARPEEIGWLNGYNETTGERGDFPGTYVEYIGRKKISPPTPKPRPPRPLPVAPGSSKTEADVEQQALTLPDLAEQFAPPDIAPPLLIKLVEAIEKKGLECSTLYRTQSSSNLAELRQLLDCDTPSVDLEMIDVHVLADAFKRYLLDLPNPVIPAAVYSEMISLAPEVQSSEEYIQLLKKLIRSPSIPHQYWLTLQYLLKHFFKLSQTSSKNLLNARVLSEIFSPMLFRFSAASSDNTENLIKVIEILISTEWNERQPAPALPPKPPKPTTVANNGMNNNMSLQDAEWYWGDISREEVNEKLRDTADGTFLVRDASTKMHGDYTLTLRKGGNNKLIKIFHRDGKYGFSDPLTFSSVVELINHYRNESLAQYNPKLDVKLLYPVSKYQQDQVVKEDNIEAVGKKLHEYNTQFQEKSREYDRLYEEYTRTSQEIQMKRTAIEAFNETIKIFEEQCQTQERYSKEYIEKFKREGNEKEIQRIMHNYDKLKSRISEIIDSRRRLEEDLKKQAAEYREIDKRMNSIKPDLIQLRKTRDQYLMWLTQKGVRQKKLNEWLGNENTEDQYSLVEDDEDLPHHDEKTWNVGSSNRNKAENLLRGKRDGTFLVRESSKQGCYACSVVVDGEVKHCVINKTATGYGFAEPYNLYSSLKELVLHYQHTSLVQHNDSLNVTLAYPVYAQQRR
Procedure: as §1, §2

[3] = target: T4, PI3K-δ kinase (p110δ/p85α) (Homo sapiens, UniProt O00329); test: as above; format: biochemical; conditions: Table 1; ATP 10 μM; read-out: PI3K-δ/nM (IC50 of inhibitory activity against PI3K kinase)
T4 construct: purchased Millipore 14-604M
T4 sequence (O00329 whole entry): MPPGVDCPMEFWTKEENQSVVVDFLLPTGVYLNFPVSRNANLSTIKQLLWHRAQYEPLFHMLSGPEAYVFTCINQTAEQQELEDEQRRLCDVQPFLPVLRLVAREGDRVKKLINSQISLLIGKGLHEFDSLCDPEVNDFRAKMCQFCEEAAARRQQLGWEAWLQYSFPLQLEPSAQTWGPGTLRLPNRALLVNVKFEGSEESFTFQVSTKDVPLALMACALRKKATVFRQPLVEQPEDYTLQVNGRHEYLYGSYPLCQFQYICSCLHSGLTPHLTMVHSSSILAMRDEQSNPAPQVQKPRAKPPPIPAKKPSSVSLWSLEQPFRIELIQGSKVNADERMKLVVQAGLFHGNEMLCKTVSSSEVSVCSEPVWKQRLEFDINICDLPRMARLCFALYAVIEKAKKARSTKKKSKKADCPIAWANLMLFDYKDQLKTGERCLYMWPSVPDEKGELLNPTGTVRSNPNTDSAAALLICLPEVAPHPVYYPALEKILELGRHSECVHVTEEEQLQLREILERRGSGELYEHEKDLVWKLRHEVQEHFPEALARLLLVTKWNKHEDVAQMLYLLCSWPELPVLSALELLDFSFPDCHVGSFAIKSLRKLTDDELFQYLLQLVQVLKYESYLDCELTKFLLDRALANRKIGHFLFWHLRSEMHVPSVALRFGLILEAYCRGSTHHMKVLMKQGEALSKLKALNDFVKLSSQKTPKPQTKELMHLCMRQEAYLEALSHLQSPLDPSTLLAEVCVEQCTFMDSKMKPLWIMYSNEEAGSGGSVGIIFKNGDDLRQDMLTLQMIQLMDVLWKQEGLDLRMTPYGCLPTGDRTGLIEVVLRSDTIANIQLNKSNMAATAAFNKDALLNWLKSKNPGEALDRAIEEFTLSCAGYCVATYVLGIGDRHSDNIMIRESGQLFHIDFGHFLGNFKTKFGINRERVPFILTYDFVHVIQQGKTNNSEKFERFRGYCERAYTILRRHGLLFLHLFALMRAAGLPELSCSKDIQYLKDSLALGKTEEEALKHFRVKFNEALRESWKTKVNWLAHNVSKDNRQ
T4 sequence (P27986 whole entry partner): as the sequence (P27986 whole entry partner) above
Procedure: as §1, §2

T47D cells = test: Cell inhibitory activity detected by MTT assay, T47D; format: cell-based; conditions: Homo sapiens, T47D, 72 h, read-out: T47D cell (IC50/nM), cell growth inhibition
Procedure: as §3, with “T47D” for “MCF-7”, “RPMI-1640” for “DMEM”, “SH30809.01B)+10%” for “SH30243.01B+10%”

[4] = Table 2, read-out: PI3K-α/nM (IC50 of inhibitory activity against PI3K-α kinase)
[5] = Table 1, read-out: PI3K-α/nM (IC50 of inhibitory activity against PI3K kinase)

T1 sequence (P42336 whole entry): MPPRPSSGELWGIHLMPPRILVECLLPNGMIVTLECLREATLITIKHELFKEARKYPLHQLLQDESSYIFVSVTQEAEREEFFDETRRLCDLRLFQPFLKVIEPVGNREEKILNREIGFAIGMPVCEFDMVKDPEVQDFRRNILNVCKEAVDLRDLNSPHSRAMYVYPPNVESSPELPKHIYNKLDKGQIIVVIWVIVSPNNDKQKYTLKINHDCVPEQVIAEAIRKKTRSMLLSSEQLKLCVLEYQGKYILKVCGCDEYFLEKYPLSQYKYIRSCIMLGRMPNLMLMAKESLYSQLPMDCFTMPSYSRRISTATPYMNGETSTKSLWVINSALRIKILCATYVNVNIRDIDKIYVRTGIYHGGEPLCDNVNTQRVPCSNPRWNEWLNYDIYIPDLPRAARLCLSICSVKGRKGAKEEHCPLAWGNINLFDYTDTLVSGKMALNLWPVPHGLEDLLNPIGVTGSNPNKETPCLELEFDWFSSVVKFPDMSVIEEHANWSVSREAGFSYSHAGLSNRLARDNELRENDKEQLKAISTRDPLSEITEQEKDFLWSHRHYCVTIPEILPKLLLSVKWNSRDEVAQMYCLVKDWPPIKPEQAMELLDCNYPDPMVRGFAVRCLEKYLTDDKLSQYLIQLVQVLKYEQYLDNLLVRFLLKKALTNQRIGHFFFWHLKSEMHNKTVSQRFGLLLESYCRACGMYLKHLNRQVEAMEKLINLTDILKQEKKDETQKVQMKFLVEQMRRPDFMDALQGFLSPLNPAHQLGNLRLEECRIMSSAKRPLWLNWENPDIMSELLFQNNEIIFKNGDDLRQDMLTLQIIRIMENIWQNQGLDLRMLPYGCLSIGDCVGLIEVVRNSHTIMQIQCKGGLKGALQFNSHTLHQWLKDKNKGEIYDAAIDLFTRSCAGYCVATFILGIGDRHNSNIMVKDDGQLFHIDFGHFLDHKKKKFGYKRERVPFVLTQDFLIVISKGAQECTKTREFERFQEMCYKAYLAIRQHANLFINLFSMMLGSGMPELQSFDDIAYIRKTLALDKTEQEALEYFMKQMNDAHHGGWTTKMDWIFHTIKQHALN
T1 sequence (P27986 whole entry partner): as the sequence (P27986 whole entry partner) above

| Structure (SMILES) | IC50 [1, 4] | IC50 (PI3K-γ kinase (p110γ)) | IC50 (MCF-7 cells) | IC50 [1, 5] | IC50 [2] | IC50 [3] | IC50 (T47D cells) |
| --- | --- | --- | --- | --- | --- | --- | --- |
| CS(=O)(=O)Cc1cc(-c2cnc(N)cc2C(F)(F)F)nc(N2CCOCC2)n1 [Compound S-62, 5-(6-(methylsulfonylmethyl)-2-morpholinopyrimidin-4-yl)-4-(trifluoromethyl)pyridin-2-amine] | 189 nM | – | – | – | – | – | – |
| C[C@H]1COCCN1c1nc(-c2cnc(N)cc2Cl)cc(C(C)(C)O)n1 [Compound S-73] | 14 nM | 623 nM | 176 nM | 14 nM | 396 nM | 514 nM | – |
| CC(C)(c1cc(-c2cnc(N)cc2Cl)nc(N2CCOCC2)n1)S(=O)(=O)c1cccc(F)c1 [Compound S-70] | 22 nM | – | – | 22 nM | 525 nM | – | 219 nM |
| CC(C)(c1cc(-c2cnc(N)cc2C(F)(F)F)nc(N2CCOCC2)n1)S(C)(=O)=O [Compound S-16] | – | 138 nM | – | – | 196 nM | 244 nM | – |
| CNC1(c2cc(-c3cnc(N)cc3C(F)(F)F)nc(N3CCOC[C@@H]3C)n2)CCC1 [Compound S-27, (S)-5-(6-(1-(methylamino)cyclobutyl)-2-(3-methylmorpholino)pyrimidin-4-yl)-4-(trifluoromethyl)pyridin-2-amine] | 285 nM | – | – | – | – | – | – |
| CS(=O)(=O)NC1(c2cc(-c3cnc(N)cc3Cl)nc(N3CCOCC3)n2)CC1 [Compound S-90] | 75 nM | – | – | – | – | – | – |
| Nc1cc(C(F)(F)F)c(-c2cc(C3(S(=O)(=O)c4ccccc4Cl)CC3)nc(N3CCOCC3)n2)cn1 [Compound S-78] | 7 nM | 925 nM | 318 nM | 7 nM | 419 nM | 85 nM | 206 nM |
| CC(C)(c1cc(-c2cnc(N)cc2C(F)(F)F)nc(N2CCOCC2)n1)S(=O)(=O)c1ccccc1F [Compound S-65] | 22 nM | – | 469 nM | 22 nM | 1220 nM | – | 280 nM |
| C[C@H]1COCCN1c1nc(-c2cnc(N)cc2C(F)(F)F)cc(C2(S(C)(=O)=O)CCCC2)n1 [Compound S-42] | – | 718 nM | 159 nM | – | 1210 nM | 324 nM | 139 nM |
| CC(C)(c1cc(-c2cnc(N)cc2C(F)(F)F)nc(N2CCOCC2)n1)S(=O)(=O)c1ccc(F)cc1 [Compound S-69] | 59 nM | – | – | – | – | – | – |
| Nc1cc(C(F)(F)F)c(-c2cc(C3(S(=O)(=O)c4ccc(F)c(F)c4)CC3)nc(N3CCOCC3)n2)cn1 [Compound S-77] | 62 nM | – | – | – | – | – | – |
| CC(C)(c1cc(-c2cnc(N)cc2C(F)(F)F)nc(N2CCOCC2)n1)S(=O)(=O)c1cccc(F)c1 [Compound S-60] | 35 nM | – | – | – | – | – | – |
| CS(=O)(=O)C1(c2cc(-c3cnc(N)cc3C(F)(F)F)nc(N3CCOCC3)n2)CC1 [Compound S-1, 5-(6-(1-(methylsulfonyl)cyclopropyl)-2-morpholinopyrimidin-4-yl)-4-(trifluoromethyl)pyridin-2-amine] | – | 288 nM | – | 16 nM | – | – | – |
| CC(C)(c1cc(-c2cnc(N)cc2Cl)nc(N2CCOCC2)n1)S(=O)(=O)c1ccccc1 [Compound S-55, 4-chloro-5-(2-morpholinyl-6-(2-(phenylsulfonyl)propan-2-yl)pyrimidin-4-yl)pyridin-2-amine] | 40 nM | – | – | – | – | – | – |
| C[C@@H]1COCCN1c1nc(-c2cnc(N)cc2C(F)(F)F)cc(C(C)(C)O)n1 [Compound S-72] | 18 nM | 1150 nM | – | 18 nM | 797 nM | 370 nM | – |
| CC(C)(c1cc(-c2cnc(N)cc2C(F)(F)F)nc(N2CCOCC2)n1)S(=O)(=O)c1ccccc1Cl [Compound S-80] | 31 nM | – | 474 nM | – | – | – | – |
| COc1nc(N)ncc1-c1cc(C2(S(C)(=O)=O)CCC2)nc(N2CCOC[C@@H]2C)n1 [Compound S-43] | – | – | – | – | – | – | 317 nM |
| CS(=O)(=O)C1(c2cc(-c3ccc(N)cc3C(F)(F)F)nc(N3CCOCC3)n2)CC1 [Comparative compound 3, 4-(6-(1-(methylsulfonyl)cyclopropyl)-2-morpholinopyrimidin-4-yl)-3-(trifluoromethyl)aniline, reference compound] | > 1000 nM | – | – | – | – | – | – |
| COC(C)(C)c1cc(-c2cnc(N)cc2C(F)(F)F)nc(N2CCOC[C@H]2C)n1 [Compound S-74] | 28 nM | 2500 nM | – | 28 nM | 2090 nM | 1010 nM | – |
| CC(C)(c1cc(-c2cnc(N)cc2C(F)(F)F)nc(N2CCOCC2)n1)S(=O)(=O)c1ccc(F)c(F)c1 [Compound S-79] | 55 nM | – | – | – | – | – | – |
| Cc1cnc(C2(c3cc(-c4cnc(N)cc4C(F)(F)F)nc(N4CCOCC4)n3)CC2)o1 [Compound S-61, 5-(6-(1-(5-methyloxazol-2-yl)cyclopropyl)-2-morpholinopyrimidin-4-yl)-4-(trifluoromethyl)pyridin-2-amine] | 195 nM | – | – | – | – | – | – |
| Nc1cc(Cl)c(-c2cc(C3(S(=O)(=O)C4CC4)CC3)nc(N3CCOCC3)n2)cn1 [Compound S-87] | 14 nM | 134 nM | 170 nM | 14 nM | 386 nM | 117 nM | 101 nM |
| CCS(=O)(=O)C1(c2cc(-c3cnc(N)cc3C(F)(F)F)nc(N3CCOCC3)n2)CC1 [Compound S-28] | – | 765 nM | – | – | 121 nM | 78 nM | – |
